{"source": "patent US9120774B2", "about": "(University of Kansas, priority 2009, dated 2015)", "key": {"primary cortical neurons": {"system": "primary cortical neurons", "assay": "Toxicity of drug alone in neuronal cells (Live-Dead assay)", "type": "cell-based", "text": "More specifically, primary cortical neurons were recovered from embryonic day 18 rat brains as described previously (Michaelis et al., Immunological Localization And Kinetic Characterization Of A Na+/Ca2+Exchanger In Neuronal And Nonneuronal Cells, Brain Res. 661 104-116 (1994)). Briefly, about 10 to 16 brains were removed from fetuses delivered by cesarean section, and the cortices dissected out. The neurons were isolated and suspended in DMEM/F12 supplemented with 10% FBS and plated on sterile dishes or cover slips coated with 10 μg/ml poly-D-lysine and 5 μg/ml mouse laminin. After 24 hours, the serum-containing medium was removed, and neurons were maintained in Neurobasal medium (Gibco) with 2% B-27 supplements (Gibco). Cells were maintained in culture at 37° C. in 5% CO2 and 97% humidity for 7 to 8 eight days in vitro (DIV) before use. […] Stock solutions of Aβ were prepared in sterile water at a concentration of 1.3 mM and stored at −20° C. Aliquots of the stock solutions were diluted to 1 mM in sterile 50 mM Tris-HCl, pH 7.4, and incubated at 37° C. for 24 hours to promote oligomerization of the peptides prior to treatment of the neurons. The effects of KU-1/A4, GA, Aβ, or the indicated combinations on neuronal viability were determined by monitoring cell survival using the Live-Dead assay as previously described. […] Digital images from 6 fields per dish were captured, and the number of viable (green) and dead (red) cells counted. All experiments were conducted with duplicate dishes from at least two neuronal preparations for each treatment, with about 1,000 cells analyzed/treatment condition. The data are expressed as the fraction of viable cells calculated from the total number of neurons counted under each treatment condition. The significance of differences between cultures exposed to various treatment conditions was determined using Student's t-test."}, "[1]": {"system": "SkBr3 (Her2 overexpressing breast cancer cells)", "settings": "previously published values; cited from earlier work"}, "cancer cell lines": {"system": "cancer cell lines", "assay": "Anti-proliferative activity, statements covering several cancer cell lines", "type": "cell-based", "description": "Upon completion of synthesis of library of compounds in Examples 23 and 24, the compounds were evaluated for anti-proliferative activity against SkBr3 (Her2 overexpressing breast cancer cells), MCF-7 (estrogen receptor positive breast cancer cells), HCT-116 (colon cancer cells characterized by wild-type p53), PL45 (pancreatic cancer cells), LNCaP (androgen sensitive prostate cancer cells) and PC-3 (androgen independent prostate cancer cells) cell lines. […] The monosubstituted benzamide variants improved activity.\n(§1) Cells were maintained in a 1:1 mixture of Advanced DMEM/F12 (Gibco) supplemented with non-essential amino acids, L-glutamine (2 mM), streptomycin (500 ng/mL), penicillin (100 units/mL), and 10% FBS. Cells were grown to confluence in a humidified atmosphere (37° C., 5% CO2), seeded (2000/well, 100 μl) in 96-well plates, and allowed to attach overnight. Compound or GDA at varying concentrations in DMSO (1% DMSO final concentration) was added, and cells were returned to the incubator for 72 hours. At 72 hours, the number of viable cells was determined using an MTS/PMS cell proliferation kit (Promega) per the manufacturer's instructions. Cells incubated in 1% DMSO were used at 100% proliferation, and values were adjusted accordingly. IC50 values were calculated from separate experiments performed in triplicate using GraphPad Prism.\nas §1, with “μg/mL),” for “ng/mL),”, “μL)” for “μl)”"}, "[2]": {"system": "MCF-7 (estrogen receptor positive breast cancer cells)", "settings": "previously published values; cited from earlier work"}, "[3]": {"system": "HCT-116 (colon cancer cells characterized by wild-type p53)", "assay": "Anti-proliferation activity against HCT-116 cells", "type": "cell-based", "settings": "Homo sapiens"}, "[4]": {"system": "SkBr3 (Her2 overexpressing breast cancer cells)", "assay": "Anti-proliferation activity against SkBr3 cells (MTS/PMS)", "type": "cell-based", "settings": "for IC50: Homo sapiens, SK-BR-3, n = 3, read-out: IC50 SkBr3", "in_short": "(§2)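 Viability after 72 h compound treatment (1% DMSO final, 37° C., 5% CO2) measured by MTS/PMS; plating density 2000 cells/well with overnight attachment.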"}, "[5]": {"system": "PC-3 (androgen independent prostate cancer cells)", "assay": "Anti-proliferation activity against PC-3 cells", "type": "cell-based", "settings": "Homo sapiens, PC-3, n = 3, read-out: IC50 PC-3", "in_short": "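Antiproliferative activity was tested in PC-3 androgen-independent prostate cancer cells. Cells grown at 37° C. with 5% CO2 in Advanced DMEM/F12 (1:1) containing non-essential amino acids, 2 mM L-glutamine, streptomycin, penicillin and 10% FBS were plated at 2000/well in 96-well plates. Proliferation was normalized to 1% DMSO controls, and IC50 values from triplicate experiments were fitted in GraphPad Prism.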"}, "[6]": {"system": "LNCaP (androgen sensitive prostate cancer cells)", "assay": "Anti-proliferation activity against LNCaP cells", "type": "cell-based", "settings": "Homo sapiens, LNCaP, n = 3, read-out: IC50 LNCaP", "in_short": "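Cells seeded at 2000/well in Advanced DMEM/F12 with 10% FBS and attached overnight, then given compound in 1% DMSO final for 72 h at 37 °C, 5% CO2. Viable cells by MTS/PMS read-out, normalised to 1% DMSO as 100% proliferation. IC50 from separate triplicate experiments.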"}, "[7]": {"system": "MCF-7 (estrogen receptor positive breast cancer cells)", "assay": "Anti-proliferation activity against MCF-7 cells (MTS/PMS)", "type": "cell-based", "settings": "Homo sapiens, MCF7, n = 3, read-out: IC50 MCF-7", "in_short": "as §2"}, "[8]": {"system": "PL45 (pancreatic cancer cells)", "assay": "Anti-proliferation activity against PL45 cells", "type": "cell-based"}, "[9]": {"system": "Hsp90 client proteins Her2, Raf and Akt in MCF-7 breast cancer cells", "assay": "Hsp90 client protein degradation, Western blot in MCF-7 cells", "type": "cell-based", "description": "FIG. 17 is a western blot analysis of Hsp90 client protein degradation assays against MCF-7 breast cancer cells. The concentration of compound 46 (in μM) is denoted above each lane. Geldamycin and DMSO were used as positive and negative controls, respectively.\nIn order to provide additional evidence that the growth inhibitory activity manifested by the 2-indoleamide compound 46 resulted from Hsp90 inhibition, 46 was evaluated by its ability to induce degradation of Hsp90-dependent client proteins. […] Since non-Hsp90-dependent substrates such as actin remained unchanged, the inhibition of cell growth was directly correlated to the degradation of Hsp90-dependent client proteins."}, "[10]": {"system": "Hsp90 client protein Her-2 in Skbr3 breast cancer cells", "assay": "Degradation of Her-2, Western blot in Skbr3 cells", "type": "cell-based", "settings": "Homo sapiens, SK-BR-3, read-out: IC50 (concentration producing 50% degradation of Her-2), 24 hours, normalized against actin", "description": "After incubation, the cells were harvested, lysed, and equal amounts of the protein lysates loaded into SDS wells. After electrophoresis, the gel was probed with Her-2 and actin (control) antibodies."}, "[11]": {"system": "Hsp90-dependent client proteins ErbB2 (Her2) and p53 in SKBr3 breast cancer cells", "settings": "previous studies; cited from earlier work"}, "[12]": {"settings": "Table 4, biaryl analogues, n = 3"}, "[13]": {"settings": "Table 5, heterocyclic analogues, n = 3"}, "[14]": {"settings": "Table 5, heterocyclic analogues"}}, "note": "Where two headings read alike, the source gives them in different places."}
{"smiles": "COC1=C2C[C@@H](C)C[C@H](OC)[C@H](O)[C@@H](C)/C=C(\\C)[C@H](OC(N)=O)[C@@H](OC)/C=C\\C=C(/C)C(=O)NC(=CC1=O)C2=O", "note": "[GA, reference compound]", "values": [{"measurement": "cytotoxicity in neuronal cells", "setting": "primary cortical neurons; 10 μM, 24 hours", "value": "significant cytotoxicity"}, {"measurement": "cytotoxicity in neuronal cells", "setting": "primary cortical neurons; lower concentrations, 72 hours", "value": "substantial cytotoxicity"}, {"measurement": "IC50", "setting": "[1]", "value": 0.018, "unit": "µM"}, {"measurement": "cytotoxicity", "setting": "cancer cell lines; SkBr3 and MCF-7, 1 μM", "value": "almost complete cytotoxicity"}, {"measurement": "IC50", "setting": "[2]", "value": 0.133, "unit": "µM"}]}
{"smiles": "CO[C@@H]1[C@@H](O)[C@@H](O)[C@H](Oc2ccc3cc(NC(=O)/C=C/c4ccccc4)c(=O)oc3c2C)OC1(C)C", "note": "[compound 25, N-(7-((2R,3R,4S,5R)-3,4-Dihydroxy-5-methoxy-6,6-dimethyltetrahydro-2H-pyran-2-yloxy)-8-methyl-2-oxo-2H-chromen-3-yl)cinnamamide]", "values": [{"measurement": "IC50", "setting": "[3]; Table 3, n = 3", "value": "3.2 ± 0.5", "unit": "µM"}, {"measurement": "IC50", "setting": "[4]; Table 3", "value": "2.6 ± 0.6", "unit": "µM"}, {"measurement": "IC50", "setting": "[5]; Table 3", "value": "3.9 ± 0.05", "unit": "µM"}, {"measurement": "IC50", "setting": "[6]; Table 3", "value": "4.5 ± 0.7", "unit": "µM"}, {"measurement": "IC50", "setting": "[7]; Table 3", "value": "4 ± 0.3", "unit": "µM"}, {"measurement": "fold increase in inhibitory activity versus the saturated derivative (23)", "setting": "cancer cell lines", "value": "about 3 fold"}, {"measurement": "IC50", "setting": "[8]; Table 3, n = 3", "value": "3 ± 1", "unit": "µM"}]}
{"smiles": "COc1ccccc1-c1cc(C(=O)Nc2cc3ccc(O[C@@H]4OC(C)(C)[C@H](OC)[C@@H](O)[C@H]4O)c(C)c3oc2=O)ccc1OC", "note": "[compound 32, N-(7-((2R,3R,4S,5R)-3,4-Dihydroxy-5-methoxy-6,6-dimethyltetrahydro-2H-pyran-2-yloxy)-8-methyl-2-oxo-2H-chromen-3-yl)-2′,6-dimethoxybiphenyl-3-carboxamide]", "values": [{"measurement": "IC50", "setting": "[3]; [12]", "value": "5.2 ± 2.1", "unit": "µM"}, {"measurement": "IC50", "setting": "[4]; Table 4, biaryl analogues", "value": "7.1 ± 0.6", "unit": "µM"}, {"measurement": "IC50", "setting": "[5]; Table 4, biaryl analogues", "value": "52.3 ± 34.7", "unit": "µM"}, {"measurement": "IC50", "setting": "[6]; Table 4, biaryl analogues", "value": "6 ± 1", "unit": "µM"}, {"measurement": "IC50", "setting": "[7]; Table 4, biaryl analogues", "value": "15.6 ± 6.3", "unit": "µM"}, {"measurement": "fold improved inhibition compared to 28", "setting": "cancer cell lines", "value": "about 2 fold"}, {"measurement": "IC50", "setting": "[8]; [12]", "value": "3.8 ± 1.7", "unit": "µM"}]}
{"smiles": "CO[C@@H]1[C@@H](O)[C@@H](O)[C@H](Oc2ccc3cc(NC(=O)c4cc5ccccc5[nH]4)c(=O)oc3c2C)OC1(C)C", "note": "[compound 46, N-(7-((2R,3R,4S,5R)-3,4-Dihydroxy-5-methoxy-6,6-dimethyltetrahydro-2H-pyran-2-yloxy)-8-methyl-2-oxo-2H-chromen-3-yl)-1H-indole-2-carboxamide]", "values": [{"measurement": "IC50", "setting": "[3]; [13]", "value": "0.17 ± 0.01", "unit": "µM"}, {"measurement": "IC50", "setting": "[4]; [14]", "value": "0.37 ± 0.06", "unit": "µM"}, {"measurement": "fold increased activity compared to novobiocin", "setting": "[4]; SkBr3 cells", "value": "greater than 500 fold"}, {"measurement": "IC50", "setting": "[5]; [14]", "value": "22.3 ± 10.1", "unit": "µM"}, {"measurement": "IC50", "setting": "[6]; [14]", "value": 12.2, "unit": "µM"}, {"measurement": "IC50", "setting": "[7]; [14]", "value": "0.57 ± 0.07", "unit": "µM"}, {"measurement": "Hsp90 client proteins Her2, Raf and Akt", "setting": "[9]", "value": "degraded in a concentration-dependent manner"}, {"measurement": "Hsp90 level", "setting": "[9]", "value": "induced"}, {"measurement": "IC50", "setting": "[8]; [13]", "value": "0.47 ± 0.34", "unit": "µM"}]}
{"smiles": "CO[C@@H]1[C@@H](O)[C@@H](O)[C@H](Oc2ccc3cc(NC(=O)c4c[nH]c5ccccc45)c(=O)oc3c2C)OC1(C)C", "note": "[compound 47, N-(7-((2R,3R,4S,5R)-3,4-Dihydroxy-5-methoxy-6,6-dimethyltetrahydro-2H-pyran-2-yloxy)-8-methyl-2-oxo-2H-chromen-3-yl)-1H-indole-3-carboxamide]", "values": [{"measurement": "IC50", "setting": "[3]; [13]", "value": "3.5 ± 0.5", "unit": "µM"}, {"measurement": "IC50", "setting": "[4]; [14]", "value": "12.2 ± 1.5", "unit": "µM"}, {"measurement": "IC50", "setting": "[5]; [14]", "value": "4.8 ± 2.4", "unit": "µM"}, {"measurement": "IC50", "setting": "[6]; [14]", "value": "2.3 ± 0.1", "unit": "µM"}, {"measurement": "IC50", "setting": "[7]; [14]", "value": "5.3 ± 0.3", "unit": "µM"}, {"measurement": "times less effective than compound 46", "setting": "cancer cell lines", "value": "3-10 times"}, {"measurement": "IC50", "setting": "[8]; [13]", "value": "1.8 ± 0.3", "unit": "µM"}]}
{"smiles": "CO[C@@H]1[C@@H](OC(N)=O)[C@@H](O)[C@H](Oc2ccc3c(O)c(NC(=O)c4ccc(O)c(CC=C(C)C)c4)c(=O)oc3c2C)OC1(C)C", "note": "[novobiocin, reference compound]", "values": [{"measurement": "IC50", "setting": "[10]", "value": 700, "unit": "µM"}, {"measurement": "concentration inducing degradation of ErbB2", "setting": "[11]", "value": "about 700 μM"}]}
